From patent US9000027B2, “Chk1 suppresses a caspase-2 apoptotic response to DNA damage that bypasses p53, bcl-2 and caspase-3” (Dana-Farber Cancer Institute, Inc., priority 2008, dated 2015)

Columns and labels:
p53^+/+ embryos = assay: Drug toxicity: AO reactivity and development of inhibitor-treated, non-irradiated p53+/+ embryos; format: in vivo, zebrafish; conditions: 0 Gy; Gö6976 1 μM, KU55933 10 μM, Chk2 Inhibitor II 10 μM
Source text: (§1) Chk1 inhibitors hold considerable promise in cancer therapy, as they are expected to synergize with genotoxic agents to kill tumor cells lacking functional p53, without affecting normal cells (Kawabe, 2004; Zhou and Bartek, 2004). […] Gö6976 has not been tested in vivo in a vertebrate model system. We therefore evaluated it as well as specific Chk2 and ATM inhibitors in the zebrafish system. Drug toxicity was monitored by scoring the AO reactivity of inhibitor-treated, but non-irradiated, p53^+/+ embryos (left column in FIG. 8A). Unless otherwise indicated, the inhibitors were applied at 18 hpf (that is, immediately before IR) for a total of 6 hours.
Immediately before IR, 18-hpf embryos were dechorionated and transferred to fresh egg water containing 1% DMSO, with or without the following inhibitors at indicated final concentrations: KU55933 (10 μM; Sigma) (Hickson et al., 2004); Chk2 Inhibitor II (10 μM; Calbiochem) (Arienti et al., 2005); Gö6976 (1 μM; Calbiochem) (Kohn et al., 2003). Unless stated otherwise, embryos were exposed to the inhibitors for 6 hr, transferred to fresh egg water, rinsed five times for 5 min, and labeled with AO. For experiments with Tg(rag2:EGFP-bcl-2) larvae, larvae were incubated in the inhibitor solution at 4 dpf, irradiated at 5 dpf, rinsed at 6 dpf, incubated in fresh inhibitor for an additional 72 hr, and mounted live at 9 dpf for fluorescence microscopic analysis of EGFP expression.

p53 mutant embryos = assay: Live acridine orange (AO) assay of IR-induced cell death in inhibitor-treated p53 mutant embryos; format: in vivo, zebrafish; conditions: 12.5 Gy at 18 hpf; Gö6976 1 μM, KU55933 10 μM, Chk2 Inhibitor II 10 μM; 6 hr
Source text: as §1
Live zebrafish embryos were dechorionated in pronase (2.0 mg/mL in egg water) for 3 to 5 min and rinsed five times in egg water at 18 hpf. Embryos were then γ-irradiated (12.5 Gy) using a ^137Cs-irradiator (Gammacell 1000) at 18 hr post-fertilization (hpf). At 24 hpf, embryos were incubated in […] Acridine Orange (AO; Sigma A-6014) in egg water for 30 min at 28.5° C., followed by 3 quick rinses and three 10-min washes in egg water. 5-10 AO-treated embryos were anesthetized in Tricaine ([…]; 3-amino benzoic acid ethylester from Sigma, A-5040) and mounted laterally on a glass slide in warm 0.5% agarose in egg water by streaking a thin layer of the warm agarose across the surface of the slide, and gently pulling the embryos across the agar with a transfer pipette. Lateral images of each zebrafish were acquired on a Zeiss Axioplan2 fluorescence microscope (5× lens), using OpenLab software and a Hammamatsu C4742-95 digital camera. All images were then converted to 8-bit grayscale in NIH ImageJ using the Image>Type>8-bit command. Next, we cropped the images using the Polyonal Selection tool and the Image>Crop functions to include only the trunk of the animal from the head until the beginning of the yolk tube (MO screen; FIG. 1B) or along the entire spinal cord (epistasis analyses; FIGS. 6A & 6D). The area outside of the selected region of interest was cleared using the Edit>Clear Outside command to create a distinct boundary around the area of interest (this is important as it allows the area of interest to be precisely selected after applying the threshold). Next, we split the acquired images into features of interest and background using the Image>Adjust>Threshold function in NIH ImageJ. We then set the maximum threshold of each image to 255 (the lower slide bar in the Threshold window), and adjusted the minimum threshold to the optimized threshold (see below). The threshold was applied using the Black & White display option, with the following Lut options applied; Thresholded pixels to foreground color; Remaining pixels to background color and Black foreground, white background. […] Next, we re-selected the region of interest on the thresholded image, following the bounded image carefully, and analyzed the pixels of the image using the Analyze>Analyze Particles function. The Minimum Size was set to 1px, the Maximum Size was set to the maximum value of 999999 and the Masks option was selected under the Show pull-down menu. The following extended options were also selected: Display Results; Clear Results; Summarize, Size Distribution and Record Starts. If selected by default, the Exclude on Edges option was deselected. The Area Fraction for each image selection was taken from the Summary window, which is the percentage of pixels in the selection that were black. To ensure valid comparisons of the AO labeling results across all experiments, we quantitatively determined a baseline Area Fraction across a large set of simultaneously irradiated and processed p53^+/+ embryos. […] This analysis yielded a mean value for the total labeled surface area of ˜20% (see FIG. 1B, light gray bar). We included at least 6 p53^+/+ non-injected control embryos in all subsequent AO-labeling experiments. […]

[1] = test system: p53^e7/e7;chk1^MO embryos; assay: Epistasis analyses in irradiated p53^e7/e7;chk1^MO embryos (live AO assay); format: in vivo; conditions: 12.5 Gy
Protocol: To identify such molecules, we performed in vivo epistasis analyses in zebrafish by knocking down or forcing the expression of candidate pathway contributors in p53^e7/e7;chk1^MO embryos.
Morpholino oligonucleotides (MOs) synthesized by Gene Tools™ LLC, were resuspended in sterile water at a concentration of 1 mM and delivered into zebrafish embryos at the one-cell stage by microinjection. The injection apparatus consisted of a heat-pulled, filamentous RNAse free capillary tube positioned by a micromanipulator (Narishige™ M-125), through which the MO was pressure-injected using a nitrogen air supply controlled by a microinjector (Harvard Apparatus™ PLI-100). MOs were delivered into the yolk of embryos at the one cell stage, just below the cytoplasm. For each previously unpublished MO, the working concentration was determined as the highest dose compatible with normal zebrafish development in the p53^e7/e7 background (maximal subtoxic concentration). […] 100 ng of bcl-xl mRNA in vitro transcribed from full-length zebrafish bcl-xl cDNA cloned into pCS2 were injected as described above. All embryos were grown at 28.5° C. in egg water (5 mM NaCl, 0.17 mM KCl, 0.4 mM CaCl2 and 0.16 mM MgSO4). Knockdown efficiencies for the chk1, chk2, atm, atr, p63, casp8 and casp9 MOs at their maximal subtoxic concentrations are shown in FIG. 10. The sequences of the PCR primers used for RT-PCR-based monitoring of MO efficiencies are available upon request.
Live zebrafish embryos were dechorionated in pronase (2.0 mg/mL in egg water) for 3 to 5 min and rinsed five times in egg water at 18 hpf. […] At 24 hpf, embryos were incubated in […] Acridine Orange (AO; Sigma A-6014) in egg water for 30 min at 28.5° C., followed by 3 quick rinses and three 10-min washes in egg water. 5-10 AO-treated embryos were anesthetized in Tricaine ([…]; 3-amino benzoic acid ethylester from Sigma, A-5040) and mounted laterally on a glass slide in warm 0.5% agarose in egg water by streaking a thin layer of the warm agarose across the surface of the slide, and gently pulling the embryos across the agar with a transfer pipette. Lateral images of each zebrafish were acquired on a Zeiss Axioplan2 fluorescence microscope (5× lens), using OpenLab software and a Hammamatsu C4742-95 digital camera. All images were then converted to 8-bit grayscale in NIH ImageJ using the Image>Type>8-bit command. Next, we cropped the images using the Polyonal Selection tool and the Image>Crop functions to include only the trunk of the animal from the head until the beginning of the yolk tube (MO screen; FIG. 1B) or along the entire spinal cord (epistasis analyses; FIGS. 6A & 6D). The area outside of the selected region of interest was cleared using the Edit>Clear Outside command to create a distinct boundary around the area of interest (this is important as it allows the area of interest to be precisely selected after applying the threshold). Next, we split the acquired images into features of interest and background using the Image>Adjust>Threshold function in NIH ImageJ. We then set the maximum threshold of each image to 255 (the lower slide bar in the Threshold window), and adjusted the minimum threshold to the optimized threshold (see below). The threshold was applied using the Black & White display option, with the following Lut options applied; Thresholded pixels to foreground color; Remaining pixels to background color and Black foreground, white background. […] Next, we re-selected the region of interest on the thresholded image, following the bounded image carefully, and analyzed the pixels of the image using the Analyze>Analyze Particles function. The Minimum Size was set to 1px, the Maximum Size was set to the maximum value of 999999 and the Masks option was selected under the Show pull-down menu. The following extended options were also selected: Display Results; Clear Results; Summarize, Size Distribution and Record Starts. […]

## NC(=O)c1ccc2nc(-c3ccc(Oc4ccc(Cl)cc4)cc3)[nH]c2c1 [Chk2 Inhibitor II]
p53^+/+ embryos
  toxicity of the dose used (AO reactivity of non-irradiated embryos): relatively toxic
p53 mutant embryos
  radiosensitization of p53 mutants (IR-induced AO labeling): only modestly radiosensitized

## O=c1cc(-c2cccc3c2Sc2ccccc2S3)oc(N2CCOCC2)c1 [KU55933]
p53^+/+ embryos
  toxicity of the dose used (AO reactivity of non-irradiated embryos): relatively toxic
p53 mutant embryos
  radiosensitization of p53 mutants (IR-induced AO labeling): only modestly radiosensitized

## atm MO: morpholino against zebrafish atm, splice acceptor i55/e56 (SEQ ID NO: 14) (GAAAACGGCACCACCTGGTAAAAAC; antisense; all phosphorodiamidate morpholino (PMO))
[1]
  reduction of the mean p53^e7/e7;chk1^MO AO response: ~60%

## casp2 MO1: morpholino targeting the splice donor site of intron 4 of zebrafish casp2 (SEQ ID NO: 22) (CGCTGAAACCCTGTTGTACCTGTGG; all phosphorodiamidate morpholino (PMO))
[1]; 7.5 hpIR
  AO labeling, of the mean p53^e7/e7;chk1^MO response: 16%
[1]; three separate experiments
  mean decrease in AO labeling compared with p53^e7/e7;chk1^MO embryos: 6 fold

## casp2 MO2: second casp2 morpholino, gt e3/i3 (SEQ ID NO: 23) (antisense ACCATACTAAAGTACCAACCATGAG; all phosphorodiamidate morpholino (PMO))
[1]
  effect on IR-induced cell death (AO labeling) of p53^e7/e7;chk1^MO embryos: significantly reduced IR-induced death

## casp8 MO: morpholino against zebrafish casp8 splice donor site (SEQ ID NO: 25) (antisense ACAGGGTTTTAACTCACAGTAGATC; all phosphorodiamidate morpholino (PMO))
[1]
  effect on IR-induced cell death (AO labeling) of p53^e7/e7;chk1^MO embryos: did not differ

## fadd MO: morpholino against zebrafish FADD, gt e3/i3 (SEQ ID NO: 30) (antisense TAACGTTACCAACCTCGCTCTTTCG; all phosphorodiamidate morpholino (PMO))
[1]
  effect on IR-induced cell death (AO labeling) of p53^e7/e7;chk1^MO embryos: failed to affect AO staining

## mismatch version of casp2 MO1: 5 base-pair mismatch casp2 morpholino (SEQ ID NO: 24) (antisense CGGTGAAAGCCTCTTCTACCTCTGG; all phosphorodiamidate morpholino (PMO))
[1]
  effect on IR-induced cell death (AO labeling) of p53^e7/e7;chk1^MO embryos: had no effect

## p63 MO: morpholino against zebrafish p63, gt e3/i3 (SEQ ID NO: 28) (antisense AAAGAGTGGCATACCGTCATTGAAC; all phosphorodiamidate morpholino (PMO))
[1]
  effect on IR-induced cell death (AO labeling) of p53^e7/e7;chk1^MO embryos: failed to compromise IR-induced cell death

## p73 MO: morpholino against zebrafish TAp73 atg/5'UTR (SEQ ID NO: 29) (antisense GGATGTTGGACAATCCACCGCAGGG; all phosphorodiamidate morpholino (PMO))
[1]
  effect on IR-induced cell death (AO labeling) of p53^e7/e7;chk1^MO embryos: failed to compromise IR-induced cell death

## puma MO: morpholino against zebrafish puma, gt e2/i2 (SEQ ID NO: 27) (antisense AACCAAGCATGACTCTTACCCTCTG; all phosphorodiamidate morpholino (PMO))
[1]
  effect on IR-induced cell death (AO labeling) of p53^e7/e7;chk1^MO embryos: did not significantly affect AO labeling
